Several values for one entry are separate records, joined by “and”; a condition that tells them apart may be missing. Identical values can stand only once. Like-named read-outs stand apart in the source and are kept apart here.
How the values were obtained:
[1] = molecular target: T1, soluble extracellular portion of CD4 (sCD4) (Homo sapiens, UniProt P01730); assay: sCD4 tryptophan fluorescence titration; format: binding; conditions: for Kd: pH 7.4, single site binding isotherm; for quenching of sCD4 tryptophan fluorescence / red shift of the emission peak: saturating concentrations of PA analog
T1 construct: soluble extracellular portion of CD4 (sCD4); purchased Progenics Pharmaceuticals, Inc
Experimental: The tryptophan fluorescence of the soluble extracellular portion of CD4 (sCD4) was used to estimate binding affinity of PA analogs for sCD4 in-vitro (Figure 2).
Figure 2 In vitro experiments of PA analogs binding to sCD4. Binding isotherm of the sCD4 tryptophan fluorescence at the wavelength of 350 nm with the increasing concentration of A) 2-BP, B) 6-AP, and C) SP; D) stoichiometric binding of 2-BP to sCD4. Tryptophan fluorescence was measured using an excitation wavelength of 280 nm. In all cases, we observed tryptophan fluorescence quenching of sCD4 by the increasing concentration of PA analogs. During stoichiometric binding experiment the concentration of sCD4 was kept at 200 nM, which is well above the dissociation constant of 2-BP-sCD4, 74 nM. Curve fitting (OriginLab) was performed to find the best values for Kd using a single site binding isotherm approximation.
Since PA analogs form micelles at micromolar concentration it was important to characterize binding stoichiomentry of PA analogs to CD4 (Figure 2D). […] The concentration of sCD4 was kept at 200 nM, which is well above the 74 nM dissociation constant of 2-BP-CD4. In this case, titrated 2-BP was fully bound. The observed changes in sCD4 fluorescence would level off when 2-BP-sCD4 reached proper stoichiometry.
Measurements were performed on a Fluorolog-3 fluorescence spectrophotometer (HORIBA Jobin Yvon) at 25°C in a 1-ml stirred cuvette. For fluorescence titration experiments, 100 nM of sCD4 dissolved in 10 mM phosphate buffer [pH 7.4] and 250 mM NaCl was used, and 100 µM solution of PA analogs, 2-BP, 6-AP, and SP dissolved in dimethylsulfoxide (DMSO) was added in 10 nM steps. Titrations in the absence of sCD4 and in the absence PA analogs were performed as reference. Tryptophan fluorescence was measured using an excitation wavelength of 280 nm. The fluorescence emission signal was subtracted from the signal of the reference titrations, and the differences adjusted by the dilution factor were plotted against the final concentration of added PA analogs. Curve fitting (OriginLab) was performed to find the best values for Kd using a single site binding isotherm approximation.

gp120 (IIIB)-CD4 complex = molecular target: T2, gp120 (IIIB)-CD4 complex (Homo sapiens, UniProt P01730); assay: gp120 capture ELISA, inhibition of gp120-CD4 complex formation; format: binding, HIV-1
T2 construct: soluble extracellular portion of CD4 (sCD4); purchased ImmunoDiagnostics, Inc., MA
Experimental: Figure 3 Inhibition of gp120-CD4 complex formation. Inhibition of gp120-CD4 complex formation was investigated by gp120 capture ELISA. […] Strepavidin-HRP was added, and then developed by addition of o-Phenylenediamine dihydrochloride (OPD) substrate. Colorimetric reaction was stopped by adding 1N HCl, and read at 490 nm. Percent of gp120-CD4 binding was calculated from gp120-CD4 complex formation in the absence of any inhibitor. pKi (-log Ki, M) was calculated and plotted in Prizm (GraphPad Software), and inhibition constant, Ki, was calculated by using the equation Ki = IC50/(1+[CD4]/Kd), based on IC50 concentration of bound CD4, [CD4] = 50 nM, and CD4 binding affinity for gp120, Kd = 5 nM. Representative of three experiments, all data are mean ± SD.
Inhibition of gp120-CD4 complex formation was investigated by CD4-to-gp120 capture ELISA, in accordance with manufacturer's instructions (ImmunoDiagnostics, Inc., MA), and as previously described. […] Strepavidin-HRP was added, and then developed by addition of OPD substrate. Colorimetric reaction was stopped by adding 1N HCl, and read at 490 nm. Percent of gp120-CD4 binding was calculated from gp120-CD4 complex formation in the absence of any inhibitor.

soluble gp120 = molecular target: T3, soluble gp120 (Human immunodeficiency virus type 1 group M subtype B, UniProt P03375); assay: reverse ELISA: plates coated with sCD4, gp120 incubated with compound; format: binding, HIV-1; conditions: plates coated with sCD4, gp120 incubated with increasing concentrations (not shown)
T3 construct: purchased

[2] = MTT viability assay in 1G5 cells; format: cell-based; conditions: human, 1G5 cells, 100 to 10,000 nM, up to 72 h, vs untreated mock control
Experimental: (§1) To ascertain possible toxicity of PA analogs, we tested each analog in cell culture system (Figure 4). 1G5 cells were treated with increasing concentrations of 2-BP, 6-AP, or SP, from 100 to 10,000 nM, and viability was determined by MTT assay at 24 h. (not shown) and at 72 h (Figure 4). Viability for all treatments and at all concentrations tested, remained ≥92% for up to 72 h. of follow-up.
(§2) Figure 4 Viability of PA analogs in tissue culture. 1G5 cells were treated with increasing concentrations of 2-BP, 6-AP, and SP, as indicated, and cell viability was determined 72 h. after treatment by MTT assay. % Viable cells were calculated from untreated mock control, which was taken as 100% viable. Bars indicate ± SD, representative of 2 experiments.
(§3) For determination of viability, 1G5 cells were seeded in 12 well plates at 1×10^6 cells/well, treated with increasing concentrations of PA analogs, from 100 to 10,000 nM (0.1 to 10 µM), as indicated. After 24 and 72 hours, cells were collected and analyzed for viability by a CellTiter 96 Non-Radioactive Cell Proliferation Assay [(3-(4,5-Dimethyl-2-thiazolyl)-2,5 dephenyltetrazolium, Promega,] (MTT) assay, as specified by the manufacturer, and as previously described.

[3] = critical micelle concentration by 1D proton NMR; format: physicochemical
CD4 receptor = conditions: cited from earlier work
gp120-to-CD4 attachment = molecular target: gp120-to-CD4 attachment; design: method as in submitted for publication; conditions: ref submitted for publication; read-out: Ki for blocking gp120-to-CD4 attachment; cited from earlier work
X4-tropic HIV-1 = conditions: primary PBL and macrophages; read-out: IC50 of productive X4-tropic HIV-1 infection; cited from earlier work
R5-tropic HIV-1 [4] = conditions: primary PBL and macrophages; read-out: IC50 of productive R5-tropic HIV-1 infection; cited from earlier work
R5-tropic HIV-1 [5] = tested on: R5-tropic HIV-1; design: method as in submitted for publication; conditions: ref submitted for publication, cited from earlier work
gp120 = conditions: cited from earlier work
1G5 cells = assay: MTT viability assay in 1G5 cells; format: cell-based; conditions: 100 to 10,000 nM, up to 72 h, vs untreated mock control
Experimental: as §1, §2, §3

[6] = Ki = IC50/(1+[CD4]/Kd), [CD4] = 50 nM, Kd = 5 nM, read-out: Ki, inhibition constant for gp120-CD4 complex formation
[7] = 100 nM sCD4, 25°C, read-out: Kd, dissociation constant for sCD4

Row | Compound | Kd ([1]; Kd, dissociation constant for sCD4, 100 nM sCD4, 25°C) | quenching of sCD4 tryptophan fluorescence [1] [%] | red shift of the emission peak [1] [nm] | concentration at which fluorescence quenching was saturated ([1]; stoichiometric titration, sCD4 kept at 200 nM) [µM] | Ki (gp120 (IIIB)-CD4 complex; [6]) | Ki (gp120 (IIIB)-CD4 complex; pKi (-log Ki, M), gp120 (IIIB), 50 nM biotin-sCD4, mean ± SD) [nM] | inhibition of gp120-CD4 complex formation in reverse experiment (soluble gp120) | viability [2] [%] | cmc, critical micelle concentration [3] [µM] | Kd [1, 7] | Ki (gp120 (IIIB)-CD4 complex; Ki, inhibition constant for gp120-CD4 complex formation, Ki = IC50/(1+[CD4]/Kd), [CD4] = 50 nM, Kd = 5 nM) | Kd (CD4 receptor) [nM] | Ki (gp120-to-CD4 attachment) [nM] | IC50 (X4-tropic HIV-1) [nM] | IC50 (R5-tropic HIV-1 [4]) [nM] | inhibition of R5-tropic HIV-1 infection (R5-tropic HIV-1 [5]; cervical explant model of human vagina and submucosa primary PBL and macrophage cells) | toxicity in cervical explant model (R5-tropic HIV-1 [5]; cervical explant model of human vagina) | binding to gp120 (gp120) | pKi (-log Ki, M) (gp120 (IIIB)-CD4 complex; gp120 (IIIB), 50 nM biotin-sCD4, mean ± SD) | viability (1G5 cells) [%]
1 | CCCCCCCCCCCCCCC(Br)C(=O)O (centres unmarked) [2-BP, 2-Bromohexadecanoic acid] | 74 nM and ~74 nM | 50 | 4 | 200 | 122 nM and ~122 nM | 120 | not inhibited | ≥ 92 | 5 |  |  |  |  |  |  |  |  |  |  | 
2 | CCCCCCCCCCCCCCCC(=O)OC[C@H](O)[C@H]1OC(=O)C(O)=C1O [6-AP, 6-O-Palmitoyl-L-ascorbic acid] |  | 40 | 3 |  |  |  | not inhibited | ≥ 92 | 7 | 140 nM and ~140 nM | 354 nM and ~354 nM |  |  |  |  |  |  |  |  | 
3 | CCCCCCCCCCCCCCCC(=O)O [PA, Palmitic acid] |  |  |  |  |  |  |  |  | 4 |  |  | ~1500 | ~2530 | ~340 | ~33000 | inhibited | without toxicity | does not bind to gp120 |  | 
4 | Sucrose palmitate [SP] |  | 60 | 5 |  | 1490 nM and ~1490 nM |  | not inhibited |  | 30 | 364 nM and ~364 nM |  |  |  |  |  |  |  |  | 5.83 ± 0.15 | ≥ 92

Source: publication PMC2921400 (PLoS ONE, 2010)
